Assays:
Test in all cases: CEREP radioligand binding
KV channel = settings: radioligand [^125I]-α-dendrotoxin
Excerpt: (§1) Supplement Table1.docx, table 3: Supplementary Table S3. RG7774 binding to non-CB1R/CB2R receptors, ion channels, transporters, and enzymes (CEREP, Celle l’Evescault, France; http://www.cerep.fr). | column: % inhibition of control SB (n = 2)

BB (non-selective) = settings: radioligand [^125I]-[Tyr^4]bombesin
Excerpt: as §1

5-HT2C (h) = 5-HT2C (h) (Homo sapiens, UniProt P28335); settings: radioligand [^3H]-mesulergine
5-HT2C (h), sequence (P28335 33-458): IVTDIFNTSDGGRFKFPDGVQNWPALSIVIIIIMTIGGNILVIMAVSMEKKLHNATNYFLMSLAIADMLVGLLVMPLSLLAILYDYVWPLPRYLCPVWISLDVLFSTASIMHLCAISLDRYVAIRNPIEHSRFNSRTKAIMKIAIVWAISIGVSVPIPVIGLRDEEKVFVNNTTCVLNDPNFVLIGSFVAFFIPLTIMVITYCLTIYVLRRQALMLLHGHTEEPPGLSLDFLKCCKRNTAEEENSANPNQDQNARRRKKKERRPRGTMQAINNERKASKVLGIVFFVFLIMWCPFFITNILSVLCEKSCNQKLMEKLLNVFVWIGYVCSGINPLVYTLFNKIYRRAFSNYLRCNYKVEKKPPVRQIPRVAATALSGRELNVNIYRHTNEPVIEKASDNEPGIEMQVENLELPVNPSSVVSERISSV
Excerpt: as §1

MC4 (h) = MC4 (h) (Homo sapiens, UniProt P32245); settings: radioligand [^125I]-NDP-α-MSH
Excerpt: as §1

BZD (peripheral) = BZD (peripheral) (Rattus norvegicus, UniProt P16257); settings: radioligand [^3H]-PK 11195
Excerpt: as §1

NK1 (h) = NK1 (h) (Homo sapiens, UniProt P25103); settings: radioligand [^125I]-BH-SP
Excerpt: as §1

M5 (h) = M5 (h) (Homo sapiens, UniProt P08912); settings: radioligand [^3H]-4-DAMP
Excerpt: as §1

5-HT transporter (h) = 5-HT transporter (h) (Homo sapiens, UniProt P31645); settings: radioligand [^3H]-imipramine
5-HT transporter (h), sequence (P31645 whole entry): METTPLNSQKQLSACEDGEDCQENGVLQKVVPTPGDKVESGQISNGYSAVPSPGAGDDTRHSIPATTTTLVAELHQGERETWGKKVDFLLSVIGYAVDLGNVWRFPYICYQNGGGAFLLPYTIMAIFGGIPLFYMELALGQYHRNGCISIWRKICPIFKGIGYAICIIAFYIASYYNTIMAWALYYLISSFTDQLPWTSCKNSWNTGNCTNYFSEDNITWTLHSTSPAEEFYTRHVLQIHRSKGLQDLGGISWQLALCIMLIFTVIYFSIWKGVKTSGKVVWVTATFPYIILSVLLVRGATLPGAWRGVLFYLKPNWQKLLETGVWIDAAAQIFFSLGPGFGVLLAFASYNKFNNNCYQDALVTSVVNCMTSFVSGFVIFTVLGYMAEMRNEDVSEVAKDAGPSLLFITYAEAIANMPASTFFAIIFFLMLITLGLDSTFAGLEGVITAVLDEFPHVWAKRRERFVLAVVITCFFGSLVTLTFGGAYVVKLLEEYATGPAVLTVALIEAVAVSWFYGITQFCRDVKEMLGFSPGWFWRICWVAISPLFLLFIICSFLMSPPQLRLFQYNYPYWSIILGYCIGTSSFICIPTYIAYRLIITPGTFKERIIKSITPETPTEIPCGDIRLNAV
Excerpt: as §1

EP2 (h) = EP2 (h) (Homo sapiens, UniProt P43116); settings: radioligand [^3H]-PGE2
Excerpt: as §1

AT2 (h) = AT2 (h) (Homo sapiens, UniProt P50052); settings: radioligand [^125I]-CGP 42112A
Excerpt: as §1

P2X = settings: radioligand [^3H]-α,β-MeATP
Excerpt: as §1

PAC1 (PACAP) (h) = PAC1 (PACAP) (h) (Homo sapiens, UniProt P41586); settings: radioligand [^125I]-PACAP1-27
Excerpt: as §1

5-HT1A (h) = 5-HT1A (h) (Homo sapiens, UniProt P08908); settings: radioligand [^3H]-8-OH-DPAT
5-HT1A (h), sequence (P08908 whole entry): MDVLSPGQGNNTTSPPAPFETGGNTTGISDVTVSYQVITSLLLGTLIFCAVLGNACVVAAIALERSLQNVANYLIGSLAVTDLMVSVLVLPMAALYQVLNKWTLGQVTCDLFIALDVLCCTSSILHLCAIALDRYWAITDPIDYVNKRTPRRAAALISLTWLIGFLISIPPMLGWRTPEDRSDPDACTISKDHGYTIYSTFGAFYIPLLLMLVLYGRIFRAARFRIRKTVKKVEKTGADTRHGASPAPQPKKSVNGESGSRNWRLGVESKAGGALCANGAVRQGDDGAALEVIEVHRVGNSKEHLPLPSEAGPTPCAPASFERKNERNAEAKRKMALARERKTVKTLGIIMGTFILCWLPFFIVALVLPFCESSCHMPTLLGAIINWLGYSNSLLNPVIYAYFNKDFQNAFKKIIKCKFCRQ
Excerpt: as §1

D5 = D5 (Homo sapiens, UniProt P21918); settings: radioligand [^3H]-SCH 23390
D5, sequence (P21918 whole entry): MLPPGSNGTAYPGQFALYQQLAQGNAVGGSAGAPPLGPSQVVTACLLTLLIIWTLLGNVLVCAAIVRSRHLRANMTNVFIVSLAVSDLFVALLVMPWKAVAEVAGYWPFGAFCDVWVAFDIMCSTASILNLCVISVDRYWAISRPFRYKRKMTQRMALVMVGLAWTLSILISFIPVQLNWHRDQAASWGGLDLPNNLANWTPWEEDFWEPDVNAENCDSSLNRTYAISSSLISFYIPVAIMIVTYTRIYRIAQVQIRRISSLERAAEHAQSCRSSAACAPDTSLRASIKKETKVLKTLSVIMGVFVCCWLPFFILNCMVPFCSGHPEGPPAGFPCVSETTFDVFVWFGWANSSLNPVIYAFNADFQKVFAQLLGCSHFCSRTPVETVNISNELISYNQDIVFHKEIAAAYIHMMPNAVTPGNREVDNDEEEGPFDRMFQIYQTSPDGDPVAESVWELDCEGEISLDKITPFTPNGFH
Excerpt: as §1

[1] = biological target: Norepinephrine transporter (h) (Homo sapiens, UniProt P23975); settings: radioligand [^3H]-nisoxetine
Excerpt: as §1

A1 (h) = A1 (h) (Homo sapiens, UniProt P30542); settings: radioligand [^3H]-DPCPX
Excerpt: as §1

NOP (ORL1) (h) = NOP (ORL1) (h) (Homo sapiens, UniProt P41146); settings: radioligand [^3H]-nociceptin
Excerpt: as §1

μ(MOP) (h) = μ(MOP) (h) (Homo sapiens, UniProt P35372); settings: radioligand [^3H]-DAMGO
Excerpt: as §1

κ(KOP) = κ(KOP) (Rattus norvegicus, UniProt P34975); settings: radioligand [^3H]-U 69593
Excerpt: as §1

[2] = test system: Ca2+ channel (L, verapamil site) (phenylalkylamine); settings: radioligand [^3H]-D888
Excerpt: as §1

NK2 (h) = NK2 (h) (Homo sapiens, UniProt P21452); settings: radioligand [^125I]-NKA
Excerpt: as §1

Alpha 2 (non-selective) = settings: radioligand [^3H]-RX 821002
Excerpt: as §1

δ(DOP) (h) = δ(DOP) (h) (Homo sapiens, UniProt P41143); settings: radioligand [^3H]-DADLE
Excerpt: as §1

CB1 (h) = CB1 (h) (Homo sapiens, UniProt P21554); settings: radioligand [^3H]-CP 55940
CB1 (h), sequence (P21554 whole entry): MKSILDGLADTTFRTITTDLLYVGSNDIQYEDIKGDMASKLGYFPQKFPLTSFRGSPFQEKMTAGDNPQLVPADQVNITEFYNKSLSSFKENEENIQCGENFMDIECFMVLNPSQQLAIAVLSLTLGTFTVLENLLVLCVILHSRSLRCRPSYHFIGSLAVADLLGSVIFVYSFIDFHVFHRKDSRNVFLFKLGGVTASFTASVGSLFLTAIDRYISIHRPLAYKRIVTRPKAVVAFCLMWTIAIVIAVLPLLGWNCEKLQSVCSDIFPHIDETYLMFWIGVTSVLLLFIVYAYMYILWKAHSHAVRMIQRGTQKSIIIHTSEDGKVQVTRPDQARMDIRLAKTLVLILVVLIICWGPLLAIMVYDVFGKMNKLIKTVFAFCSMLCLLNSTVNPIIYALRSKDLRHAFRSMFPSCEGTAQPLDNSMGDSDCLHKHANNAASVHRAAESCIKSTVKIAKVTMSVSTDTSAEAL
Excerpt: as §1

CCK2 (CCKB) (h) = CCK2 (CCKB) (h) (Homo sapiens, UniProt P32239); settings: radioligand [^125I]-CCK-8s
CCK2 (CCKB) (h), sequence (P32239 whole entry): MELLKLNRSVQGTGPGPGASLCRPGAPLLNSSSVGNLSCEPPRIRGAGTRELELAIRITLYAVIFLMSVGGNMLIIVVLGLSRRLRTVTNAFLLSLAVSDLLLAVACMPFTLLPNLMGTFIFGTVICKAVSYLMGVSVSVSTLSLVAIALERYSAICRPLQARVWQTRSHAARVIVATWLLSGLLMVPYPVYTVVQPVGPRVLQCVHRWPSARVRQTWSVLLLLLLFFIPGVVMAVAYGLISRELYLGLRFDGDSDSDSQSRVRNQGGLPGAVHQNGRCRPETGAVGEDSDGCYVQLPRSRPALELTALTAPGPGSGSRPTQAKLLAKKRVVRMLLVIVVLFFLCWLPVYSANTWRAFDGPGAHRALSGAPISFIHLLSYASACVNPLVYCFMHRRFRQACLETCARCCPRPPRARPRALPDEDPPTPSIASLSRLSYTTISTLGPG
Excerpt: as §1

M3 (h) = M3 (h) (Homo sapiens, UniProt P20309); settings: radioligand [^3H]-4-DAMP
Excerpt: as §1

M2 (h) = M2 (h) (Homo sapiens, UniProt P08172); settings: radioligand [^3H]-AF-DX 384
Excerpt: as §1

Cl- channel (GABA-gated) = settings: radioligand [^35S]-TBPS
Excerpt: as §1

PPARγ (h) = PPARγ (h) (Homo sapiens, UniProt P37231); settings: radioligand [^3H]-rosiglitazone
PPARγ (h), sequence (P37231 whole entry): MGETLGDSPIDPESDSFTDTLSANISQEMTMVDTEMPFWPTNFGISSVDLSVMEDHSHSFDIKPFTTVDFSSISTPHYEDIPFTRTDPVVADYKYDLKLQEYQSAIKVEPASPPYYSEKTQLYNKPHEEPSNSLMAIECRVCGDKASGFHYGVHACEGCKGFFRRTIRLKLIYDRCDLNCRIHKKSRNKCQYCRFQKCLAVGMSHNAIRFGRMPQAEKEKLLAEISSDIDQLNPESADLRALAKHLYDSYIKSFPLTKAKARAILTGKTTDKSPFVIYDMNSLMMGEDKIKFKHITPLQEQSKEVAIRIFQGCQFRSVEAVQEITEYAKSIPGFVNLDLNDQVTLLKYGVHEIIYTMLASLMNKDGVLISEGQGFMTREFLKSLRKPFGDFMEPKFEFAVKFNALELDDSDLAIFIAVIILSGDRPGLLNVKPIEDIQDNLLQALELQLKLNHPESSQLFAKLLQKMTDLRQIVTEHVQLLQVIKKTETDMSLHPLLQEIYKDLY
Excerpt: as §1

PDGF = settings: radioligand [^125I]-PDGF BB
Excerpt: as §1

5-HT3 (h) = 5-HT3 (h) (Homo sapiens, UniProt P46098); settings: radioligand [^3H]-BRL 43694
5-HT3 (h), sequence (P46098 24-478): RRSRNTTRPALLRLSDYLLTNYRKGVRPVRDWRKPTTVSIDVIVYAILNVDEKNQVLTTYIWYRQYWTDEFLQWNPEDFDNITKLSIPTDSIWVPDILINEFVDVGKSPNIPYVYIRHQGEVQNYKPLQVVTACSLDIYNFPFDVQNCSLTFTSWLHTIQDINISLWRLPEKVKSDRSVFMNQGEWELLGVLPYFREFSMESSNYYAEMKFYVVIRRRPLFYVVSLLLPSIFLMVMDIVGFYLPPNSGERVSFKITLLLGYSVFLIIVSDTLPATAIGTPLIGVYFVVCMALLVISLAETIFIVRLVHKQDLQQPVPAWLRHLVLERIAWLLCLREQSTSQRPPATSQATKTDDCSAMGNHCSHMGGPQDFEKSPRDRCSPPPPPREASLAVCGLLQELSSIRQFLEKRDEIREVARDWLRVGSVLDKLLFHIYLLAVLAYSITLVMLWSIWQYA
Excerpt: as §1

CCK1 (CCKA) (h) = CCK1 (CCKA) (h) (Homo sapiens, UniProt P32238); settings: radioligand [^125I]-CCK-8s
CCK1 (CCKA) (h), sequence (P32238 whole entry): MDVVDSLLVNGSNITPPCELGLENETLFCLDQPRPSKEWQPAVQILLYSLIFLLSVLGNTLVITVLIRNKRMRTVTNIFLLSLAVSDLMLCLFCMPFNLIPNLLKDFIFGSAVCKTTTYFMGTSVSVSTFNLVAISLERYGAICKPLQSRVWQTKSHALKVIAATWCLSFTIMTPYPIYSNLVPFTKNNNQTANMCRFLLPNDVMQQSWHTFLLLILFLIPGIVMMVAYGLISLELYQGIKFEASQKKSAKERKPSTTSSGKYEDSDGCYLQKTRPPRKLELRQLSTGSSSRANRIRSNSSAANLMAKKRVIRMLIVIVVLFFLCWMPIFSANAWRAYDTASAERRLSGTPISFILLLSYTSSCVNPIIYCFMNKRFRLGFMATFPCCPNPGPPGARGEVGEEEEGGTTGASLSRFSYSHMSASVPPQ
Excerpt: as §1

Y2 (h) = Y2 (h) (Homo sapiens, UniProt P49146); settings: radioligand [^125I]-peptide YY
Excerpt: as §1

M4 (h) = M4 (h) (Homo sapiens, UniProt P08173); settings: radioligand [^3H]-4-DAMP
M4 (h), sequence (P08173 whole entry): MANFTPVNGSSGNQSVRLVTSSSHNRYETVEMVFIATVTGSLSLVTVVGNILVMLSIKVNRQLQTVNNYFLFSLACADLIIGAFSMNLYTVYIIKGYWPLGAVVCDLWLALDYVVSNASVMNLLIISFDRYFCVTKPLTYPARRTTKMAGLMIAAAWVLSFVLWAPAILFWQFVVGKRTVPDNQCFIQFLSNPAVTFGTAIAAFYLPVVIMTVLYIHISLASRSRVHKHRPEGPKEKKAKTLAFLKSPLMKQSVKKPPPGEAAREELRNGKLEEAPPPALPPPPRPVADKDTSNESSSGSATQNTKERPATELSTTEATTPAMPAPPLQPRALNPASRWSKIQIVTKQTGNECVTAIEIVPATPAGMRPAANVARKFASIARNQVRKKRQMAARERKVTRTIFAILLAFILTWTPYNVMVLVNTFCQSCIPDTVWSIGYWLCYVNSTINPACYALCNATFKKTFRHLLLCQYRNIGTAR
Excerpt: as §1

SKCa channel = settings: radioligand [^125I]-apamin
Excerpt: as §1

A3 (h) = A3 (h) (Homo sapiens, UniProt P0DMS8); settings: radioligand [^125I]-AB-MECA
Excerpt: as §1

A2A (h) = A2A (h) (Homo sapiens, UniProt P29274); settings: radioligand [^3H]-CGS 21680
Excerpt: as §1

Cn1nnnc1Cn1nnc2c(N3CC[C@H](O)C3)nc(C(C)(C)C)nc21 [RG7774, (S)-1-(5-tert-butyl-3-[(1-methyl-1H-tetrazol-5-yl)methyl]-3H-[1,2,3]triazolo[4,5-d]pyrimidin-7-yl)pyrrolidin-3-ol]
% inhibition of control SB (n = 2) (KV channel): –5.7%
% inhibition of control SB (n = 2) (BB (non-selective)): –9.5%
% inhibition of control SB (n = 2) (5-HT2C (h)): 2.7%
% inhibition of control SB (n = 2) (MC4 (h)): –14.5%
% inhibition of control SB (n = 2) (BZD (peripheral)): –12.0%
% inhibition of control SB (n = 2) (NK1 (h)): –3.7%
% inhibition of control SB (n = 2) (M5 (h)): –2.7%
% inhibition of control SB (n = 2) (5-HT transporter (h)): 22.2%
% inhibition of control SB (n = 2) (EP2 (h)): –13.4%
% inhibition of control SB (n = 2) (AT2 (h)): 3.1%
% inhibition of control SB (n = 2) (P2X): 25.9%
% inhibition of control SB (n = 2) (PAC1 (PACAP) (h)): –1.3%
% inhibition of control SB (n = 2) (5-HT1A (h)): 3.6%
% inhibition of control SB (n = 2) (D5): –2.0%
% inhibition of control SB (n = 2) [1]: 5.4%
% inhibition of control SB (n = 2) (A1 (h)): 3.6%
% inhibition of control SB (n = 2) (NOP (ORL1) (h)): 2.7%
% inhibition of control SB (n = 2) (μ(MOP) (h)): –2.5%
% inhibition of control SB (n = 2) (κ(KOP)): –12.7%
% inhibition of control SB (n = 2) [2]: 3.0%
% inhibition of control SB (n = 2) (NK2 (h)): –5.5%
% inhibition of control SB (n = 2) (Alpha 2 (non-selective)): –20.9%
% inhibition of control SB (n = 2) (δ(DOP) (h)): 4.7%
% inhibition of control SB (n = 2) (CB1 (h)): –0.8%
% inhibition of control SB (n = 2) (CCK2 (CCKB) (h)): –7.6%
% inhibition of control SB (n = 2) (M3 (h)): –6.7%
% inhibition of control SB (n = 2) (M2 (h)): –8.7%
% inhibition of control SB (n = 2) (Cl- channel (GABA-gated)): 17.2%
% inhibition of control SB (n = 2) (PPARγ (h)): 1.7%
% inhibition of control SB (n = 2) (PDGF): –5.6%
% inhibition of control SB (n = 2) (5-HT3 (h)): 1.4%
% inhibition of control SB (n = 2) (CCK1 (CCKA) (h)): –7.4%
% inhibition of control SB (n = 2) (Y2 (h)): –3.6%
% inhibition of control SB (n = 2) (M4 (h)): –8.9%
% inhibition of control SB (n = 2) (SKCa channel): 8.6%
% inhibition of control SB (n = 2) (A3 (h)): –0.6%
% inhibition of control SB (n = 2) (A2A (h)): 12.4%
